Starred links: 1 amine or outer side, 2 acyl side, 3 side chain; linkers in the order of their positions; H or OH if unused. Positions of bridges follow the written chain, without caps; N, C: chain ends. Non-standard residues stand in square brackets, D forms with d. Residues, ends and D or L forms follow the SMILES beside them. Groups on a side chain read outwards from the residue. *: point of attachment. X7 = O=C(O)CN1CCN(CC(=O)O)CCN(CC(=O)NCCOCCOCCOCCOCCOCCOCCOCCOCC(=O)*)CCN(CC(=O)O)CC1; Ala(1-CH2CO2H-4-piperidyl) = N[C@@H](CC1CCN(CC(=O)O)CC1)C(=O)O; Ala(piperidin-4-yl) = O=C([C@H](CC1CCN([*:3])CC1)N[*:1])[*:2]; DOTA = O=C(O)CN1CCN(CC(=O)O)CCN(CC(=O)*)CCN(CC(=O)O)CC1; NH(CH2CH2O)4CH2CO = O=C(COCCOCCOCCOCCN[*:1])[*:2]; Trp(4-OMe) = COc1cccc2[nH]cc(C[C@H](N)C(=O)O)c12; Phe(4-COOH) = N[C@@H](Cc1ccc(C(=O)O)cc1)C(=O)O; Trp(5-F) = N[C@@H](Cc1c[nH]c2ccc(F)cc12)C(=O)O; Phe(3-F) = N[C@@H](Cc1cccc(F)c1)C(=O)O; 1Nal = N[C@@H](Cc1cccc2ccccc12)C(=O)O; Ala(4-THP) = N[C@@H](CC1CCOCC1)C(=O)O; Val(3-OH) = CC(C)(O)[C@H](N)C(=O)O; hCha = N[C@@H](CCC1CCCCC1)C(=O)O; PEG4 = NCCOCCOCCOCCOCCC(=O)O; Tle = CC(C)(C)[C@H](N)C(=O)O; hLeu = CC(C)CC[C@H](N)C(=O)O; Nle = CCCC[C@H](N)C(=O)O; Dab = NCC[C@H](N)C(=O)O
What follows are compounds tested against T1, human 4lg B7-H3 (Homo sapiens, UniProt Q5ZPR3) (assay: Affinity determination by surface plasmon resonance (SPR) to 4Ig B7-H3). Details: SPR KD—25° C., 4Ig B7-H3; 25° C. flow cell temperature.
T1 sequence (Q5ZPR3 29-534): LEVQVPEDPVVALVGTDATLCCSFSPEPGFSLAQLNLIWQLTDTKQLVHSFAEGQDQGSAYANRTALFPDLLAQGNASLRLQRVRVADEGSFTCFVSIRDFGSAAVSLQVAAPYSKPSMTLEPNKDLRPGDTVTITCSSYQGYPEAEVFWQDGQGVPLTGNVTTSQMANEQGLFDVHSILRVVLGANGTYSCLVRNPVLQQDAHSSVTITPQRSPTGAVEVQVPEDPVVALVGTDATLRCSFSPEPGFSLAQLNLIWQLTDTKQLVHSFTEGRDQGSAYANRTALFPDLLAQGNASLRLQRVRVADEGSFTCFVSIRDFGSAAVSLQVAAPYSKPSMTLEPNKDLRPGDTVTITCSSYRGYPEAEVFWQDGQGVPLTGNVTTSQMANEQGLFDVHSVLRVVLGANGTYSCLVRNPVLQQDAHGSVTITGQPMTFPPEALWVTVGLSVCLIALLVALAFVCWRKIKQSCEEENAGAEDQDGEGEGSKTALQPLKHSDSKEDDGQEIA

Row | Kd [nM] | Compound
1 | < 1 | CC(=O)N[C@@H](CCC(C)C)C(=O)N[C@@H](Cc1ccc(O)cc1)C(=O)N[C@H]1CSSC[C@@H](C(=O)N[C@@H](Cc2c[nH]c3ccc(F)cc23)C(=O)N[C@@H](Cc2cccc(F)c2)C(=O)N[C@H](C(=O)N[C@H](CCCCNC(=O)CN2CCN(CC(=O)O)CCN(CC(=O)O)CCN(CC(=O)O)CC2)C(N)=O)[C@@H](C)O)NC(=O)[C@H](Cc2ccc(O)cc2)NC(=O)[C@H](C(C)C)NC(=O)[C@H](CC(=O)O)NC(=O)[C@H](Cc2ccc(O)cc2)NC(=O)[C@H](CCCCN)NC(=O)CNC(=O)[C@H](C(C)C)NC1=O [compound 173, Ac-hLeu-Y-C-V-G-K-Y-D-V-Y-C-5FW-3FPhe-Thr-dLys(DOTA)-CONH2] (Ac-[hLeu]YCVGKYDVYC[Trp(5-F)][Phe(3-F)]T[dK](DOTA)-NH2; disulfide 3-11)
2 | < 1 | CC(=O)N[C@@H](CCC(C)C)C(=O)N[C@@H](Cc1ccc(O)cc1)C(=O)N[C@H]1CSSC[C@@H](C(=O)N[C@@H](Cc2cccc3ccccc23)C(=O)N[C@@H](Cc2ccccc2)C(=O)N2CCC[C@H]2C(=O)N[C@H](CCCCNC(=O)COCCOCCOCCOCCOCCOCCOCCOCCNC(=O)CN2CCN(CC(=O)O)CCN(CC(=O)O)CCN(CC(=O)O)CC2)C(N)=O)NC(=O)[C@H](Cc2ccc(O)cc2)NC(=O)[C@H](C(C)C)NC(=O)[C@H](CC(=O)O)NC(=O)[C@H](CC2CCOCC2)NC(=O)[C@H](CCCCN)NC(=O)CNC(=O)[C@H](C(C)(C)C)NC1=O [compound 280, Ac-hLeu-Y-C-Tbg-G-K-ThpA-D-V-Y-C-1Nal-F-Pro-dLys(PEG8-DOTA)-CONH2] (Ac-[hLeu]YC[Tle]GK[Ala(4-THP)]DVYC[1Nal]FP[dK](X7)-NH2; disulfide 3-11)
3 | 10 to 100 | CC(C)CC[C@H](NC(=O)COCCOCCOCCOCCNC(=O)CN1CCN(CC(=O)O)CCN(CC(=O)O)CCN(CC(=O)O)CC1)C(=O)N[C@@H](Cc1ccc(O)cc1)C(=O)N[C@H]1CSSC[C@@H](C(=O)N[C@@H](Cc2c[nH]c3ccc(F)cc23)C(=O)N[C@@H](Cc2ccccc2)C(=O)N2CCC[C@H]2C(=O)O)NC(=O)[C@H](Cc2ccc(O)cc2)NC(=O)[C@H](C(C)C)NC(=O)[C@H](CC(=O)O)NC(=O)[C@H](CC2CCOCC2)NC(=O)[C@H](CCCCN)NC(=O)CNC(=O)[C@H](C(C)(C)C)NC1=O [Cpd #306, DOTA-PEG4-hLeu-Y-C-Tbg-G-K-ThpA-D-V-Y-C-5FW-F-Pro-COOH] ({DOTA}-[NH(CH2CH2O)4CH2CO][hLeu]YC[Tle]GK[Ala(4-THP)]DVYC[Trp(5-F)]FP-OH; disulfide 4-12)
4 | 1 to 10 | CCCC[C@H](NC(C)=O)C(=O)N[C@@H](Cc1ccc(O)cc1)C(=O)N[C@H]1CSSC[C@@H](C(=O)N[C@@H](Cc2c[nH]c3ccc(F)cc23)C(=O)N[C@@H](Cc2ccccc2)C(=O)N[C@H](C(N)=O)[C@@H](C)O)NC(=O)[C@H](Cc2ccc(O)cc2)NC(=O)[C@H](C(C)C)NC(=O)[C@H](CC(=O)O)NC(=O)[C@H](Cc2ccc(O)cc2)NC(=O)[C@H](CCCCN)NC(=O)CNC(=O)[C@H](C(C)C)NC1=O [compound 59, Ac-Nle-Y-C-V-G-K-Y-D-V-Y-C-5FW-F-Thr-CONH2] (Ac-[Nle]YCVGKYDVYC[Trp(5-F)]FT-NH2; disulfide 3-11)
5 | < 1 | CC(=O)N[C@@H](CCC(C)C)C(=O)N[C@@H](Cc1ccc(O)cc1)C(=O)N[C@H]1CSSC[C@@H](C(=O)N[C@@H](Cc2cccc3ccccc23)C(=O)N[C@@H](Cc2ccccc2)C(=O)N2CCC[C@H]2C(=O)N[C@H](CCCCNC(=O)CN2CCN(CC(=O)O)CCN(CC(=O)O)CCN(CC(=O)O)CC2)C(N)=O)NC(=O)[C@H](Cc2ccc(O)cc2)NC(=O)[C@H](C(C)C)NC(=O)[C@H](CC(=O)O)NC(=O)[C@H](Cc2ccc(O)cc2)NC(=O)[C@H](CCCCN)NC(=O)CNC(=O)[C@H](C(C)(C)C)NC1=O [compound 244, Ac-hLeu-Y-C-Tbg-G-K-Y-D-V-Y-C-1Nal-F-Pro-dLys(DOTA)-CONH2] (Ac-[hLeu]YC[Tle]GKYDVYC[1Nal]FP[dK](DOTA)-NH2; disulfide 3-11)
6 | 10 to 100 | CCCC[C@H](NC(C)=O)C(=O)N[C@@H](Cc1ccc(O)cc1)C(=O)N[C@H]1CSSC[C@@H](C(=O)N[C@@H](Cc2c[nH]c3ccccc23)C(=O)N[C@@H](Cc2ccccc2)C(=O)N[C@@H](CCN)C(=O)N[C@H](CCCCNC(=O)CN2CCN(CC(=O)O)CCN(CC(=O)O)CCN(CC(=O)O)CC2)C(N)=O)NC(=O)[C@H](Cc2ccc(O)cc2)NC(=O)[C@H](C(C)C)NC(=O)[C@H](CC(=O)O)NC(=O)[C@H](Cc2ccc(O)cc2)NC(=O)[C@H](CCCCN)NC(=O)CNC(=O)[C@H](C(C)C)NC1=O [compound 131, Ac-Nle-Y-C-V-G-K-Y-D-V-Y-C-W-F-Dab-dLys(DOTA)-CONH2] (Ac-[Nle]YCVGKYDVYCWF[Dab][dK](DOTA)-NH2; disulfide 3-11)

Same assay, conditions: SPR KD—37° C., 4Ig B7-H3; 37° C. flow cell temperature

Row | Kd [nM] | Compound
7 | < 1 | CC(=O)N[C@@H](CCC(C)C)C(=O)N[C@@H](Cc1ccc(O)cc1)C(=O)N[C@H]1CSSC[C@@H](C(=O)N[C@@H](Cc2c[nH]c3ccc(F)cc23)C(=O)N[C@@H](Cc2ccccc2)C(=O)N[C@H](C(N)=O)C(C)(C)O)NC(=O)[C@H](Cc2ccc(O)cc2)NC(=O)[C@H](C(C)C)NC(=O)[C@H](CC(=O)O)NC(=O)[C@H](CC2CCN(C(=O)CCOCCOCCOCCOCCNC(=O)CN3CCN(CC(=O)O)CCN(CC(=O)O)CCN(CC(=O)O)CC3)CC2)NC(=O)[C@H](CC2CCNCC2)NC(=O)CNC(=O)[C@H](C(C)(C)C)NC1=O [compound 445, Ac-hLeu-Y-C-Tbg-G-PipAla-Pip(PEG4-DOTA)Ala-D-V-Y-C-5FW-F-hydroxyVal-CONH2] (Ac-[hLeu]YC[Tle]G[Ala(piperidin-4-yl)][Ala(piperidin-4-yl)]([PEG4-DOTA])DVYC[Trp(5-F)]F[Val(3-OH)]-NH2; disulfide 3-11)
8 | 1 to 10 | COc1cccc2[nH]cc(C[C@H](NC(=O)[C@@H]3CSSC[C@H](NC(=O)[C@H](Cc4ccc(O)cc4)NC(=O)[C@H](CCC(C)C)NC(C)=O)C(=O)N[C@@H](C(C)(C)C)C(=O)NCC(=O)N[C@@H](CC4CCNCC4)C(=O)N[C@@H](CC4CCOCC4)C(=O)N[C@@H](CC(=O)O)C(=O)N[C@@H](C(C)C)C(=O)N[C@@H](Cc4ccc(O)cc4)C(=O)N3)C(=O)N[C@@H](Cc3ccccc3)C(=O)N[C@H](C(=O)N[C@H](CCCCNC(=O)CN3CCN(CC(=O)O)CCN(CC(=O)O)CCN(CC(=O)O)CC3)C(=O)O)C(C)(C)O)c12 [compound 493, Ac-hLeu-Y-C-Tbg-G-PipAla-ThpA-D-V-Y-C-4MeOW-F-hydroxyVal-dLys(DOTA)-COOH] (Ac-[hLeu]YC[Tle]G[Ala(piperidin-4-yl)][Ala(4-THP)]DVYC[Trp(4-OMe)]F[Val(3-OH)][dK](DOTA)-OH; disulfide 3-11)
9 | < 1 | CC(=O)N[C@@H](CCC1CCCCC1)C(=O)N[C@@H](Cc1ccc(O)cc1)C(=O)N[C@H]1CSSC[C@@H](C(=O)N[C@@H](Cc2c[nH]c3ccc(F)cc23)C(=O)N[C@@H](Cc2ccccc2)C(=O)N[C@H](C(=O)N[C@H](CCCCNC(=O)CN2CCN(CC(=O)O)CCN(CC(=O)O)CCN(CC(=O)O)CC2)C(=O)O)C(C)(C)O)NC(=O)[C@H](Cc2ccc(O)cc2)NC(=O)[C@H](C(C)C)NC(=O)[C@H](CC(=O)O)NC(=O)[C@H](CC2CCOCC2)NC(=O)[C@H](CC2CCNCC2)NC(=O)CNC(=O)[C@H](C(C)(C)C)NC1=O [compound 442, Ac-hCha-Y-C-Tbg-G-PipAla-ThpA-D-V-Y-C-5FW-F-hydroxyVal-dLys(DOTA)-COOH] (Ac-[hCha]YC[Tle]G[Ala(piperidin-4-yl)][Ala(4-THP)]DVYC[Trp(5-F)]F[Val(3-OH)][dK](DOTA)-OH; disulfide 3-11)
10 | 10 to 100 | CC(=O)N[C@@H](CCC(C)C)C(=O)N[C@@H](Cc1ccc(O)cc1)C(=O)N[C@H]1CSSC[C@@H](C(=O)N[C@@H](Cc2c[nH]c3ccc(F)cc23)C(=O)N[C@@H](Cc2ccccc2)C(=O)N[C@H](C(=O)O)C(C)(C)O)NC(=O)[C@H](Cc2ccc(O)cc2)NC(=O)[C@H](C(C)C)NC(=O)[C@H](CC(=O)O)NC(=O)[C@H](CC2CCOCC2)NC(=O)[C@H](CC2CCN(C(=O)CN3CCN(CC(=O)O)CCN(CC(=O)O)CCN(CC(=O)O)CC3)CC2)NC(=O)CNC(=O)[C@H](C(C)(C)C)NC1=O [compound 342, Ac-hLeu-Y-C-Tbg-G-Pip(DOTA)Ala-ThpA-D-V-Y-C-5FW-F-hydroxyVal-COOH] (Ac-[hLeu]YC[Tle]G[Ala(piperidin-4-yl)](DOTA)[Ala(4-THP)]DVYC[Trp(5-F)]F[Val(3-OH)]-OH; disulfide 3-11)
11 | 1 to 10 | CC(=O)N[C@@H](CCC(C)C)C(=O)N[C@@H](Cc1ccc(O)cc1)C(=O)N[C@H]1CSSC[C@@H](C(=O)N[C@@H](Cc2c[nH]c3ccc(F)cc23)C(=O)N[C@@H](Cc2ccccc2)C(=O)N2CCC[C@H]2C(=O)N[C@H](CCCCNC(=O)CN2CCN(CC(=O)O)CCN(CC(=O)O)CCN(CC(=O)O)CC2)C(N)=O)NC(=O)[C@H](Cc2ccc(O)cc2)NC(=O)[C@H](C(C)C)NC(=O)[C@H](CC(=O)O)NC(=O)[C@H](Cc2ccc(C(=O)O)cc2)NC(=O)[C@H](CC2CCN(CC(=O)O)CC2)NC(=O)CNC(=O)[C@H](C(C)C)NC1=O [compound 320, Ac-hLeu-Y-C-V-G-[Pip(CH2CO2H)Ala]-4COOHPhe-D-V-Y-C-5FW-F-Pro-dLys(DOTA)-CONH2] (Ac-[hLeu]YCVG[Ala(1-CH2CO2H-4-piperidyl)][Phe(4-COOH)]DVYC[Trp(5-F)]FP[dK](DOTA)-NH2; disulfide 3-11)

Source: patent publication US20250296959A1, “B7-H3 TARGETING PEPTIDES AND CONSTRUCTS THEREOF” (Mariana Oncology Inc., priority 2024, published 2025)
